# Reference: PubChem BioAssay AID248 (DTP/NCI, 2004)
# Where “and” joins values, the source holds several entries; their conditions need not be identical. Equal values may be shown once. Toxic doses and inconclusive results are not listed. Numbered stars: 1 amine (or outer) side, 2 acyl side, 3 side chain; on linkers, the order of the positions; unused ones are H or OH. Bridge positions count the residues as written; N and C are the ends. Square brackets hold non-standard residues; d marks the D form. Peptide text beside a SMILES is read from it. I, II: the chains in the order shown. Actinocin(1to9) = Cc1c2oc3c(C)ccc(C(=O)[*:2])c3nc-2c(C(=O)[*:1])c(N)c1=O; X5 = O=C1CC(C(=O)[*:2])N([*:1])C1; NMeV = CN[CH](C(=O)O)C(C)C; Sar = CNCC(=O)O
# System: L1210 leukemia ip in BDF1 mice, survival T/C
# Assay: NCI In Vivo Anticancer Drug Screen. Data for tumor model L1210 Leukemia (intraperitoneal) in B6D2F1 (BDF1) mice
# Conditions: higher = longer survival
# Outline: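 Read-out is survival time, reported as the treated-group measurement over the vehicle-control measurement.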
# [1] = endpoint: mean survival time, dose: 100.0 mg/kg/injection, schedule: Q04DX002 (ip), vehicle: Klucel (hydroxypropylcellulose) (HPC)
# [2] = endpoint: mean survival time, dose: 200.0 mg/kg/injection, schedule: Q04DX002 (ip), vehicle: Klucel (hydroxypropylcellulose) (HPC)
# [3] = endpoint: mean survival time, dose: 400.0 mg/kg/injection, schedule: Q04DX002 (ip), vehicle: Klucel (hydroxypropylcellulose) (HPC)
# [4] = endpoint: mean survival time, dose: 50.0 mg/kg/injection, schedule: Q01DX001 (ip), vehicle: saline
# [5] = endpoint: mean survival time, dose: 100.0 mg/kg/injection, schedule: Q01DX001 (ip), vehicle: saline
# [6] = endpoint: mean survival time, dose: 200.0 mg/kg/injection, schedule: Q01DX001 (ip), vehicle: saline
# [7] = endpoint: mean survival time, dose: 400.0 mg/kg/injection, schedule: Q01DX001 (ip), vehicle: saline
# [8] = endpoint: mean survival time, dose: 100.0 mg/kg/injection, schedule: Q04DX003 (ip), vehicle: saline
# [9] = endpoint: mean survival time, dose: 200.0 mg/kg/injection, schedule: Q04DX003 (ip), vehicle: saline
# [10] = endpoint: mean survival time, dose: 400.0 mg/kg/injection, schedule: Q04DX003 (ip), vehicle: saline
# [11] = endpoint: mean survival time, dose: 100.0 mg/kg/injection, schedule: Q01DX001 (ip), vehicle: Klucel (hydroxypropylcellulose) (HPC)
# [12] = endpoint: mean survival time, dose: 100.0 mg/kg/injection, schedule: Q01DX009 (ip), vehicle: Klucel (hydroxypropylcellulose) (HPC)
# [13] = endpoint: mean survival time, dose: 200.0 mg/kg/injection, schedule: Q01DX009 (ip), vehicle: Klucel (hydroxypropylcellulose) (HPC)
# [14] = endpoint: mean survival time, dose: 400.0 mg/kg/injection, schedule: Q01DX009 (ip), vehicle: Klucel (hydroxypropylcellulose) (HPC)
# [15] = endpoint: mean survival time, dose: 25.0 mg/kg/injection, schedule: Q01DX009 (ip), vehicle: Klucel (hydroxypropylcellulose) (HPC)
# [16] = endpoint: mean survival time, dose: 100.0 mg/kg/injection, schedule: Q04DX003 (ip), vehicle: Klucel (hydroxypropylcellulose) (HPC)
# [17] = endpoint: mean survival time, dose: 200.0 mg/kg/injection, schedule: Q04DX003 (ip), vehicle: Klucel (hydroxypropylcellulose) (HPC)
# [18] = endpoint: mean survival time, dose: 400.0 mg/kg/injection, schedule: Q04DX003 (ip), vehicle: Klucel (hydroxypropylcellulose) (HPC)
structure (smiles),measurement,setting,value
CC(=O)OC(CC/C(C)=C/COC1CCCCO1)C(C)(C)O (stereo not drawn),T/C,"endpoint: mean survival time, dose: 100.0 mg/kg/injection, schedule: Q01DX001 (ip), vehicle: saline with Tween-80",102 % of control
same,T/C,"endpoint: mean survival time, dose: 100.0 mg/kg/injection, schedule: Q01DX009 (ip), vehicle: saline with Tween-80",95 % of control
same,T/C,"endpoint: mean survival time, dose: 200.0 mg/kg/injection, schedule: Q01DX001 (ip), vehicle: saline with Tween-80",103 % of control
same,T/C,"endpoint: mean survival time, dose: 200.0 mg/kg/injection, schedule: Q01DX009 (ip), vehicle: saline with Tween-80",98 % of control
same,T/C,"endpoint: mean survival time, dose: 400.0 mg/kg/injection, schedule: Q01DX001 (ip), vehicle: saline with Tween-80",105 % of control
same,T/C,"endpoint: mean survival time, dose: 400.0 mg/kg/injection, schedule: Q01DX009 (ip), vehicle: saline with Tween-80",96 % of control
OCC1OC(n2cnc3c(SCc4ccccc4)nc(NO)nc32)C(O)C1O (stereo not drawn),T/C,"endpoint: mean survival time, dose: 267.0 mg/kg/injection, schedule: Q01DX001 (ip), vehicle: saline with Tween-80",150 % of control
CCOC(=O)COCC(=O)OCC,T/C,"endpoint: mean survival time, dose: 100.0 mg/kg/injection, schedule: Q04DX002 (ip), vehicle: saline with Tween-80",98 % of control
same,T/C,"endpoint: mean survival time, dose: 200.0 mg/kg/injection, schedule: Q04DX002 (ip), vehicle: saline with Tween-80",98 % of control
same,T/C,"endpoint: mean survival time, dose: 400.0 mg/kg/injection, schedule: Q04DX002 (ip), vehicle: saline with Tween-80",102 % of control
C1COC2(OC1)OCCCO2,T/C,[1],108 % of control
same,T/C,[2],105 % of control
same,T/C,[3],105 % of control
N#Cc1ccc(CCc2ccccc2)cc1,T/C,[4],102 % of control
same,T/C,[5],102 % of control
same,T/C,[6],101 % of control
same,T/C,[7],102 % of control
CN(C)c1ccc(/C=N/Nc2nnc(N/N=C/c3ccc(N(C)C)cc3Cl)c3ccccc23)c(Cl)c1,T/C,[4],102 % of control
same,T/C,[5],100 % of control
same,T/C,[6],100 % of control
same,T/C,[7],92 % of control
C=C/C=C/CCN1CC1,T/C,"endpoint: mean survival time, dose: 12.5 mg/kg/injection, schedule: Q04DX003 (ip), vehicle: Klucel (hydroxypropylcellulose) (HPC)",114 % of control
same,T/C,"endpoint: mean survival time, dose: 25.0 mg/kg/injection, schedule: Q04DX003 (ip), vehicle: Klucel (hydroxypropylcellulose) (HPC)",112 % of control
same,T/C,"endpoint: mean survival time, dose: 50.0 mg/kg/injection, schedule: Q04DX003 (ip), vehicle: Klucel (hydroxypropylcellulose) (HPC)",106 % of control
NNC(N)=S,T/C,"endpoint: mean survival time, dose: 3.13 mg/kg/injection, schedule: Q04DX003 (ip), vehicle: saline",109 % of control
same,T/C,"endpoint: mean survival time, dose: 6.25 mg/kg/injection, schedule: Q04DX003 (ip), vehicle: saline",104 % of control and 103 % of control
same,T/C,"endpoint: mean survival time, dose: 12.5 mg/kg/injection, schedule: Q04DX003 (ip), vehicle: saline",97 % of control and 100 % of control
CC(=O)Nc1ccc(N)c(NC(C)=O)n1,T/C,[8],97 % of control
same,T/C,[9],95 % of control
same,T/C,[10],109 % of control
N#CC1CN2c3ccc4ccccc4c3CCC2C1=O (stereo not drawn),T/C,[4],106 % of control
same,T/C,[5],104 % of control
same,T/C,[6],104 % of control
CC(C)(C)NO,T/C,[11],113 % of control
same,T/C,[12],108 % of control
same,T/C,"endpoint: mean survival time, dose: 200.0 mg/kg/injection, schedule: Q01DX001 (ip), vehicle: Klucel (hydroxypropylcellulose) (HPC)",101 % of control
same,T/C,[13],103 % of control
same,T/C,"endpoint: mean survival time, dose: 400.0 mg/kg/injection, schedule: Q01DX001 (ip), vehicle: Klucel (hydroxypropylcellulose) (HPC)",98 % of control
same,T/C,[14],101 % of control
N#CC12CC=CCC1CCC2=N (stereo not drawn),T/C,"endpoint: mean survival time, dose: 12.5 mg/kg/injection, schedule: Q01DX009 (ip), vehicle: Klucel (hydroxypropylcellulose) (HPC)",96 % of control
same,T/C,[15],89 % of control
Cc1cccc(NC(=O)COc2ccc(C)cc2C)c1,T/C,[1],103 % of control
same,T/C,[2],92 % of control
same,T/C,[3],95 % of control
CCC(NC(=O)CN)C(=O)O (stereo not drawn),T/C,"endpoint: mean survival time, dose: 100.0 mg/kg/injection, schedule: Q01DX009 (ip), vehicle: saline",100 % of control and 107 % of control
same,T/C,"endpoint: mean survival time, dose: 100.0 mg/kg/injection, schedule: Q04DX002 (ip), vehicle: saline",97 % of control and 101 % of control and 91 % of control
same,T/C,[8],93 % of control
same,T/C,"endpoint: mean survival time, dose: 200.0 mg/kg/injection, schedule: Q01DX009 (ip), vehicle: saline",102 % of control and 92 % of control
same,T/C,"endpoint: mean survival time, dose: 200.0 mg/kg/injection, schedule: Q04DX002 (ip), vehicle: saline",97 % of control and 105 % of control
same,T/C,[9],94 % of control
same,T/C,"endpoint: mean survival time, dose: 400.0 mg/kg/injection, schedule: Q01DX009 (ip), vehicle: saline",102 % of control and 111 % of control
same,T/C,"endpoint: mean survival time, dose: 400.0 mg/kg/injection, schedule: Q04DX002 (ip), vehicle: saline",108 % of control and 100 % of control and 118 % of control
same,T/C,[10],98 % of control
COc1ccc2c(c1)C1CCCCC1SCC2=O (stereo not drawn),T/C,"endpoint: mean survival time, dose: 100.0 mg/kg/injection, schedule: Q01DX001 (ip), vehicle: other",100 % of control
same,T/C,"endpoint: mean survival time, dose: 200.0 mg/kg/injection, schedule: Q01DX001 (ip), vehicle: other",96 % of control
same,T/C,"endpoint: mean survival time, dose: 400.0 mg/kg/injection, schedule: Q01DX001 (ip), vehicle: other",96 % of control
Cc1c(Cl)c(Cl)c(NS(=O)(=O)c2ccccc2)c(NS(=O)(=O)c2ccccc2)c1Cl,T/C,[12],95 % of control
same,T/C,[13],103 % of control
same,T/C,[14],100 % of control
N=C(N)SC(c1ccccc1)c1ccccc1,T/C,"endpoint: mean survival time, dose: 25.0 mg/kg/injection, schedule: Q01DX001 (ip), vehicle: Klucel (hydroxypropylcellulose) (HPC)",97 % of control
same,T/C,"endpoint: mean survival time, dose: 50.0 mg/kg/injection, schedule: Q01DX001 (ip), vehicle: Klucel (hydroxypropylcellulose) (HPC)",104 % of control
same,T/C,[11],101 % of control
same,T/C,[5],98 % of control
CCOC(=O)Nc1ccccc1C,T/C,[16],95 % of control
same,T/C,[17],100 % of control
same,T/C,"endpoint: mean survival time, dose: 222.0 mg/kg/injection, schedule: Q01DX Z (ip), vehicle: methylcellulose (MC)",101 % of control
same,T/C,"endpoint: mean survival time, dose: 333.0 mg/kg/injection, schedule: Q01DX Z (ip), vehicle: methylcellulose (MC)",101 % of control
same,T/C,[18],94 % of control
Cc1ccc(OCCOc2ccc(N)cc2)cc1,T/C,"endpoint: mean survival time, dose: 100.0 mg/kg/injection, schedule: Q04DX003 (ip), vehicle: alcohol",92 % of control
same,T/C,"endpoint: mean survival time, dose: 200.0 mg/kg/injection, schedule: Q04DX003 (ip), vehicle: alcohol",95 % of control
same,T/C,"endpoint: mean survival time, dose: 400.0 mg/kg/injection, schedule: Q04DX003 (ip), vehicle: alcohol",90 % of control
COc1cc(OC)c(NC(=O)C(Cl)(Cl)Cl)cc1Cl,T/C,[1],98 % of control
same,T/C,[2],95 % of control
same,T/C,[3],95 % of control
CN(C)C(=S)Oc1ccc(N)cc1,T/C,[16],94 % of control
same,T/C,[17],101 % of control
same,T/C,[18],94 % of control
c1ccc2c(c1)CCc1ccccc1CN(CCN1CCCC1)C2,T/C,[15],96 % of control
same,T/C,[12],99 % of control
COc1ccc([N+](=O)[O-])c2c1CONC2c1c(CO)cnc(C)c1O (stereo not drawn),T/C,"endpoint: mean survival time, dose: 100.0 mg/kg/injection, schedule: Q04DX003 (ip), vehicle: acetone",90 % of control
same,T/C,"endpoint: mean survival time, dose: 200.0 mg/kg/injection, schedule: Q04DX003 (ip), vehicle: acetone",96 % of control
same,T/C,"endpoint: mean survival time, dose: 400.0 mg/kg/injection, schedule: Q04DX003 (ip), vehicle: acetone",89 % of control
"Cc1c2oc3c(C)ccc(C(=O)NC4C(=O)NC(C(C)C)C(=O)N5CCCC5C(=O)N(C)CC(=O)N(C)C(C(C)C)C(=O)OC4C)c3nc-2c(C(=O)NC2C(=O)NC(C(C)C)C(=O)N3CC(=O)CC3C(=O)N(C)CC(=O)N(C)C(C(C)C)C(=O)OC2C)c(N)c1=O (stereo not drawn) (I: TV[X5][Sar][NMeV] / II: TVP[Sar][NMeV]; ester I:1-I:C, II:1-II:C; linker I:N-II:N via Actinocin(1to9); configuration not given here)",T/C,"endpoint: median survival time, dose: 3.1 micrograms/kg/injection, schedule: Q01DX009 (ip), vehicle: water",108 % of control
same,T/C,"endpoint: median survival time, dose: 6.2 micrograms/kg/injection, schedule: Q01DX009 (ip), vehicle: water",120 % of control
same,T/C,"endpoint: median survival time, dose: 12.5 micrograms/kg/injection, schedule: Q01DX009 (ip), vehicle: water",116 % of control
same,T/C,"endpoint: median survival time, dose: 18.7 micrograms/kg/injection, schedule: Q04DX003 (ip), vehicle: water",108 % of control
same,T/C,"endpoint: median survival time, dose: 25.0 micrograms/kg/injection, schedule: Q01DX009 (ip), vehicle: water",108 % of control
same,T/C,"endpoint: median survival time, dose: 37.5 micrograms/kg/injection, schedule: Q04DX003 (ip), vehicle: water",113 % of control
O=C(O)CNC(=O)c1ccc(NC(=S)Nc2ccccc2)cc1,T/C,[15],90 % of control
same,T/C,"endpoint: mean survival time, dose: 50.0 mg/kg/injection, schedule: Q01DX009 (ip), vehicle: Klucel (hydroxypropylcellulose) (HPC)",88 % of control
same,T/C,[12],108 % of control and 91 % of control
O=P(O)(CO)CO,T/C,[8],109 % of control
same,T/C,[9],95 % of control
